Among the data in paper PMC9054634 (RSC Advances, 2020) are Ki values, retold here.

For this experiment, the target named is E. coli β-glucuronidase (GUS) (Escherichia coli, UniProt P05804). In words: pNPG hydrolysis by purified GUS, UPLC-UV, Lineweaver-Burk kinetics. It counts as biochemical.
Chain of E. coli β-glucuronidase (GUS) (P05804 whole entry): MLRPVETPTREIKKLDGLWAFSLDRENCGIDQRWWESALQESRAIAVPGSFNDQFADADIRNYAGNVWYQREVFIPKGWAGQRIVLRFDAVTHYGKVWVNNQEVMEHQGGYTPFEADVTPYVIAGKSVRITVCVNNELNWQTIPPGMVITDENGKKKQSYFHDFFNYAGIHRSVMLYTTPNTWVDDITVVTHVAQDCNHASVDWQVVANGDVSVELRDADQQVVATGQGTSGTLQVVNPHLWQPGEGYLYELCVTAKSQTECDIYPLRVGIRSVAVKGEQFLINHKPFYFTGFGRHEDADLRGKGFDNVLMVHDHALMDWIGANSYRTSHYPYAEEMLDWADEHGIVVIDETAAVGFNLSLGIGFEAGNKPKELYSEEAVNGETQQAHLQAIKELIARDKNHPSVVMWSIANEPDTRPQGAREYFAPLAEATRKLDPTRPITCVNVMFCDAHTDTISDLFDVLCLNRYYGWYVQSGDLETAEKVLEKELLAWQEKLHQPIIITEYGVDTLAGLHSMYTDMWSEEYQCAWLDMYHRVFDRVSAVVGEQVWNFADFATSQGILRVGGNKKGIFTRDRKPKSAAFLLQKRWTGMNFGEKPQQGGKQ

A word on the Ki: it is the dissociation constant of the complex between target and ligand, obtained from inhibition or displacement. Lower therefore signals higher affinity. As to `C[C@]12CC[C@@H]3c4ccc(O)cc4CC[C@H]3[C@@H]1CC[C@@H]2O` [E2, Estradiol], the Ki is 31.4 µM.

`C=CCc1ccc(O)c(-c2cc(CC=C)ccc2O)c1` [Mag, Magnolol] showed a Ki of 16.6 µM.

The compound `CN1CCN(CCCN2c3ccccc3Sc3ccc(C(F)(F)F)cc32)CC1` [TFP, Trifluoperazine] displayed a Ki of 56.9 µM.
